Results: publication PMC5013292, “A Putative Bacterial ABC Transporter Circumvents the Essentiality of Signal Peptidase” (mBio, 2016)

Key:
[1] = test system: S. aureus USA300 SpsB-high; assay: MIC, USA300 SpsB-high; assay type: cell-based; details: result in words
Protocol: (§1) MICs were determined according to the standard protocol from the Clinical and Laboratory Standards Institute ([23]). Briefly, S. aureus bacteria were harvested from regular MHA plates that had been cultured for ~20 h at 37°C. Serial dilutions of compound 103 were incubated with bacteria at approximately 10^6 CFU (CFU)/ml in MHB in round-bottom 96 well plates (Corning, Corning, NY) for 22 h at 37°C. MICs were determined by the lowest concentration of compound 103 showing absence of growth by visual inspection.
(§2) A strain of USA300 Δmcr overexpressing SpsB (USA300 SpsB-high; GNE0028) was engineered by cloning SpsB under the constitutive sarA promoter into vector pMK4, resulting in SpsB expression that was ~20-fold higher than the wild-type level as determined by Western blotting. A USA300 Δmcr strain that underexpresses SpsB (USA300 SpsB-low; […]) was generated by genomic incorporation of spsB under the isopropyl-β-D-thiogalactopyranoside (IPTG)-sensitive promoter spac; without IPTG, this strain expresses SpsB at ~5% of the wild-type level as determined by Western blotting.

[2] = test system: S. aureus USA300 SpsB-low; assay: MIC, USA300 SpsB-low; assay type: cell-based; details: result in words
Protocol: as §1, §2

[3] = test system: 102 globally diverse clinical S. aureus isolates; assay: MIC, global panel of 102 clinical isolates; assay type: cell-based; details: among a panel of 102 clinical S. aureus isolates
Description: Wild-type clinical S. aureus strains were obtained from the Network on Antibiotic Resistance in Staphylococcus aureus (NARSA/BEI) program. MRSA strain USA300 refers throughout this paper to strain NRS384 from NARSA/BEI. A global panel of 102 clinical S. aureus isolates was selected from the collection of International Health Management Associates, Inc. (IHMA; Schaumburg, IL), based on diversity of geographic locations, antibiotic resistance profiles, and sites of infection. Bacteria were cultured on cation-adjusted Mueller-Hinton agar (MHA) plates or in cation-adjusted Mueller-Hinton broth (MHB). Bacterial strains used in this study are listed in Table S5 in the supplemental material.
as §1

S. aureus USA300 = assay: Frequency of spontaneous resistance, USA300; assay type: cell-based; details: agar with compound 103 at fourfold its MIC; 37°C, 2 days; output/input CFU
Protocol: (§3) To determine the frequency of spontaneous resistance, suspensions containing approximately 5 × 10^9 CFU of S. aureus were cultured on MHA plates containing compound 103 at fourfold the MIC; serial dilutions were cultured in parallel on regular MHA to determine the actual number of CFU (input). The frequency of spontaneous resistance was defined as the number of viable colonies able to grow in the presence of compound 103 after culture at 37°C for 2 days (output) divided by input.

[4] = test system: USA300 SAUSA300_0352(K44A) (strain GNE0174); assay: Frequency of spontaneous resistance, GNE0174; assay type: cell-based, S. aureus; details: K44A in SAUSA300_0352 in WT USA300 background; fourfold MIC; 37°C, 2 days; approximately 2 orders of magnitude reduced
Protocol: as §3
(§4) To generate mutations in SAUSA300_0351, _0352, and _0353 genes by homologous recombination, we transformed USA300 Δmcr using targeting constructs created in the vector pIMAY ([24]). To generate mutations in SAUSA300_0351, _0352, and _0353 genes in a cro/cI mutant background, we selected colonies from USA300 Δmcr cultured on plates containing fourfold the MIC of compound 103. Sequencing of PCR products of the cro/cI gene from resistant colonies yielded a clone with a Q16stop codon mutation in cro/cI (strain GNE0173). We further mutated SAUSA300_0351, _0352, and _0353 in this USA300 Δmcr cro/cI (Q16stop) clone to study the contributions of these three genes to cro/cI-mediated resistance.

[5] = test system: psarA-SAUSA300_0351_0352_0353 (GNE0162); assay: MIC fold increase, GNE0162; assay type: cell-based, S. aureus
Protocol: as §1, §4

[6] = test system: cro/cI(M1V)(pMK4) (GNE0107); assay: MIC fold increase, GNE0107; assay type: cell-based, S. aureus
Protocol: as §1

[7] = test system: cro/cI(M1V)(pcro/cI-cro/cI) (GNE0109); assay: MIC fold increase, GNE0109; assay type: cell-based, S. aureus
Protocol: as §1

[8] = test system: cro/cI(−14G→T)(pMK4) (GNE0096); assay: MIC fold increase, GNE0096; assay type: cell-based, S. aureus
Protocol: as §1

[9] = test system: cro/cI(−14G→T)(pcro/cI-cro/cI) (GNE0097); assay: MIC fold increase, GNE0097; assay type: cell-based, S. aureus
Protocol: as §1

[10] = test system: cro/cI(−62G→A)(pMK4) (GNE0099); assay: MIC fold increase, GNE0099; assay type: cell-based, S. aureus
Protocol: as §1

[11] = test system: cro/cI(−62G→A)(pcro/cI-cro/cI) (GNE0100); assay: MIC fold increase, GNE0100; assay type: cell-based, S. aureus
Protocol: as §1

[12] = test system: Δmcr cro/cI(Q16stop) ΔSAUSA300_0351 (GNE0209); assay: MIC fold increase, GNE0209; assay type: cell-based, S. aureus
Protocol: as §1, §4

[13] = test system: SpsB Y30C mutant of USA300 Δmcr cro/cI(Q16stop) SAUSA300_0352(K44A); assay: MIC fold increase, SpsB Y30C mutant; assay type: cell-based, S. aureus
Protocol: as §1

[14] = test system: SpsB Y30D mutant of USA300 Δmcr cro/cI(Q16stop) SAUSA300_0352(K44A); assay: MIC fold increase, SpsB Y30D mutant; assay type: cell-based, S. aureus
Protocol: as §1

[15] = test system: SpsB V49L mutant of USA300 Δmcr cro/cI(Q16stop) SAUSA300_0352(K44A); assay: MIC fold increase, SpsB V49L mutant; assay type: cell-based, S. aureus
Protocol: as §1

[16] = test system: SpsB H68Y mutant of USA300 Δmcr cro/cI(Q16stop) SAUSA300_0352(K44A); assay: MIC fold increase, SpsB H68Y mutant; assay type: cell-based, S. aureus
Protocol: as §1

[17] = test system: SpsB H69L mutant of USA300 Δmcr cro/cI(Q16stop) SAUSA300_0352(K44A); assay: MIC fold increase, SpsB H69L mutant; assay type: cell-based, S. aureus
Protocol: as §1

[18] = test system: SpsB V167F mutant of USA300 Δmcr cro/cI(Q16stop) SAUSA300_0352(K44A); assay: MIC fold increase, SpsB V167F mutant; assay type: cell-based, S. aureus
Protocol: as §1

Q: `CCCCc1ccc(-c2ccc(C(=O)N[C@@H](CCCCN)C(=O)N(C)[C@@H]3C(=O)N[C@@H](C)C(=O)N[C@H](C(=O)NCC(C)C(=O)O)Cc4ccc(O)c(c4)-c4cc3ccc4O)cc2)cc1` (stereo partly drawn) [Compound 103] was tested. Which “MIC for an SpsB-overexpressing strain” value [1] did it give?
A: The value was “increased MIC”.

Q: And the “MIC for a strain that underexpresses SpsB” value [2]?
A: Its value is “reduced MIC”.

Q: And the “isolates resistant to compound 103” value [3]?
A: The value was 7 isolates.

Q: And the “frequency of spontaneous resistance” value (S. aureus USA300)?
A: Its value is 3 × 10^−7.

Q: What about the “frequency of spontaneous resistance” value [4] of the same compound?
A: The value was 2 × 10^−9.

Q: What about the “MIC of compound 103 (fold increase versus MIC for USA300 WT)” value ([5]; GNE0162) of the same compound?
A: Its value is over 32 fold.

Q: What about the resistance phenotype ([5]; GNE0162, overexpression of 3 ABC transporter genes, result in words) of the same compound?
A: Its resistance phenotype is “induced resistance”.

Q: And the “MIC of compound 103 (fold increase versus MIC for USA300 WT)” value [6]?
A: The value was over 32 fold.

Q: And the “MIC of compound 103 (fold increase versus MIC for USA300 WT)” value ([7]; GNE0109)?
A: Its value is 1.7 fold.

Q: What about the resistance phenotype ([7]; GNE0109, plasmid-encoded WT cro/cI, result in words) of the same compound?
A: Its resistance phenotype is “reversed the resistant phenotype”.

Q: And the “MIC of compound 103 (fold increase versus MIC for USA300 WT)” value [8]?
A: The value was over 32 fold.

Q: What about the “MIC of compound 103 (fold increase versus MIC for USA300 WT)” value ([9]; GNE0097) of the same compound?
A: The value was 3.0 fold.

Q: What about the resistance phenotype ([9]; GNE0097, plasmid-encoded WT cro/cI, result in words) of the same compound?
A: Its resistance phenotype is “reversed the resistant phenotype”.

Q: What about the “MIC of compound 103 (fold increase versus MIC for USA300 WT)” value [10] of the same compound?
A: Its value is over 32 fold.

Q: And the “MIC of compound 103 (fold increase versus MIC for USA300 WT)” value ([11]; GNE0100)?
A: The value was over 32 fold.

Q: And the resistance phenotype ([11]; GNE0100, plasmid-encoded WT cro/cI, result in words)?
A: Its resistance phenotype is “could not complement the phenotype”.

Q: And the “MIC of compound 103 (fold increase versus MIC for USA300 WT)” value ([12]; GNE0209)?
A: The value was over 32 fold.

Q: What about the resistance phenotype ([12]; GNE0209, deletion of SAUSA300_0351, result in words) of the same compound?
A: Its resistance phenotype is “had no effect on the resistance phenotype”.

Q: And the “MIC of compound 103 (fold increase versus MIC for USA300 WT)” value [13]?
A: The value was 4 fold.

Q: What about the “MIC of compound 103 (fold increase versus MIC for USA300 WT)” value [14] of the same compound?
A: The value was 8 fold.

Q: What about the “MIC of compound 103 (fold increase versus MIC for USA300 WT)” value [15] of the same compound?
A: Its value is 4 fold.

Q: What about the “MIC of compound 103 (fold increase versus MIC for USA300 WT)” value [16] of the same compound?
A: The value was 8 fold.

Q: And the “MIC of compound 103 (fold increase versus MIC for USA300 WT)” value [17]?
A: The value was 4 fold.

Q: What about the “MIC of compound 103 (fold increase versus MIC for USA300 WT)” value [18] of the same compound?
A: Its value is 8 fold.
